Measured values as given in PubChem BioAssay (NCI).
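Assay format: 96-well plates, 48-hour exposure. At the GI50, growth is halved. TGI is the concentration that stops growth completely.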

Columns and labels:
Assay in all cases: growth of human tumour cells (NCI), 48 h
786-0 renal = tested on: 786-0 renal
A498 renal = tested on: A498 renal
A549 NSCLC = tested on: A549 NSCLC
ACHN renal = tested on: ACHN renal
BT-549 breast = tested on: BT-549 breast
CAKI-1 renal = tested on: CAKI-1 renal
CCRF-CEM leukemia = tested on: CCRF-CEM leukemia
COLO 205 colon = tested on: COLO 205 colon
DU-145 prostate = tested on: DU-145 prostate
EKVX NSCLC = tested on: EKVX NSCLC
HCC-2998 colon = tested on: HCC-2998 colon
HCT-116 colon = tested on: HCT-116 colon
HCT-15 colon = tested on: HCT-15 colon
HL-60(TB) leukemia = tested on: HL-60(TB) leukemia
HOP-62 NSCLC = tested on: HOP-62 NSCLC
HOP-92 NSCLC = tested on: HOP-92 NSCLC
HS 578T breast = tested on: HS 578T breast
HT29 colon = tested on: HT29 colon
IGROV1 ovarian = tested on: IGROV1 ovarian
K-562 leukemia = tested on: K-562 leukemia
KM12 colon = tested on: KM12 colon
LOX IMVI melanoma = tested on: LOX IMVI melanoma
M14 melanoma = tested on: M14 melanoma
MALME-3M melanoma = tested on: MALME-3M melanoma
MCF7 breast = tested on: MCF7 breast
MDA-MB-231 breast = tested on: MDA-MB-231 breast
MDA-MB-435 = tested on: MDA-MB-435
MDA-MB-468 breast = tested on: MDA-MB-468 breast
MOLT-4 leukemia = tested on: MOLT-4 leukemia
NCI-H226 lung = tested on: NCI-H226 lung
NCI-H23 lung = tested on: NCI-H23 lung
NCI-H460 lung = tested on: NCI-H460 lung
NCI-H522 lung = tested on: NCI-H522 lung
NCI/ADR-RES ovarian = tested on: NCI/ADR-RES ovarian
OVCAR-3 ovarian = tested on: OVCAR-3 ovarian
OVCAR-4 ovarian = tested on: OVCAR-4 ovarian
OVCAR-5 ovarian = tested on: OVCAR-5 ovarian
OVCAR-8 ovarian = tested on: OVCAR-8 ovarian
PC-3 prostate = tested on: PC-3 prostate
RPMI-8226 leukemia = tested on: RPMI-8226 leukemia
RXF 393 renal = tested on: RXF 393 renal
SF-268 CNS = tested on: SF-268 CNS
SF-295 CNS = tested on: SF-295 CNS
SF-539 CNS = tested on: SF-539 CNS
SK-MEL-2 melanoma = tested on: SK-MEL-2 melanoma
SK-MEL-28 melanoma = tested on: SK-MEL-28 melanoma
SK-MEL-5 melanoma = tested on: SK-MEL-5 melanoma
SK-OV-3 ovarian = tested on: SK-OV-3 ovarian
SN12C renal = tested on: SN12C renal
SNB-19 CNS = tested on: SNB-19 CNS
SNB-75 CNS = tested on: SNB-75 CNS
SW-620 colon = tested on: SW-620 colon
T-47D breast = tested on: T-47D breast
TK-10 renal = tested on: TK-10 renal
U251 CNS = tested on: U251 CNS
UACC-257 melanoma = tested on: UACC-257 melanoma
UACC-62 melanoma = tested on: UACC-62 melanoma
UO-31 renal = tested on: UO-31 renal

`COC(=O)C[C@](O)(CCCC(C)(C)O)C(=O)O[C@H]1C(OC)=C[C@@]23CCCN2CCc2cc4c(cc2[C@@H]13)OCO4` was tested. Which GI50 (786-0 renal) did it give?
Its GI50 is 1450 nM.

And the TGI (786-0 renal)?
The TGI was 9560 nM.

What about the GI50 (A498 renal) of the same compound?
The GI50 was 665 nM.

And the TGI (A498 renal)?
Its TGI is 3660 nM.

And the GI50 (A549 NSCLC)?
Its GI50 is 999 nM.

And the TGI (A549 NSCLC)?
Its TGI is 8720 nM.

And the GI50 (ACHN renal)?
The GI50 was 1770 nM.

What about the TGI (ACHN renal) of the same compound?
The TGI was 16200 nM.

What about the GI50 (BT-549 breast) of the same compound?
The GI50 was 823 nM.

What about the TGI (BT-549 breast) of the same compound?
The TGI was 2380 nM.

What about the GI50 (CAKI-1 renal) of the same compound?
The GI50 was 3000 nM.

What about the TGI (CAKI-1 renal) of the same compound?
The TGI was 29700 nM.

What about the GI50 (CCRF-CEM leukemia) of the same compound?
Its GI50 is 856 nM.

And the TGI (CCRF-CEM leukemia)?
The TGI was 3020 nM.

What about the GI50 (COLO 205 colon) of the same compound?
Its GI50 is 1700 nM.

What about the TGI (COLO 205 colon) of the same compound?
The TGI was 6870 nM.

And the GI50 (DU-145 prostate)?
Its GI50 is 1120 nM.

And the TGI (DU-145 prostate)?
The TGI was 13400 nM.

And the GI50 (EKVX NSCLC)?
The GI50 was 1670 nM.

What about the TGI (EKVX NSCLC) of the same compound?
The TGI was 16800 nM.

And the GI50 (HCC-2998 colon)?
The GI50 was 545 nM.

And the TGI (HCC-2998 colon)?
The TGI was 1590 nM.

And the GI50 (HCT-116 colon)?
Its GI50 is 717 nM.

And the TGI (HCT-116 colon)?
The TGI was 3010 nM.

And the GI50 (HCT-15 colon)?
The GI50 was 4650 nM.

And the TGI (HCT-15 colon)?
The TGI was 21700 nM.

What about the GI50 (HL-60(TB) leukemia) of the same compound?
The GI50 was 456 nM.

And the TGI (HL-60(TB) leukemia)?
Its TGI is 1740 nM.

What about the GI50 (HOP-62 NSCLC) of the same compound?
The GI50 was 1500 nM.

What about the TGI (HOP-62 NSCLC) of the same compound?
The TGI was 16200 nM.

What about the GI50 (HOP-92 NSCLC) of the same compound?
The GI50 was 1150 nM.

What about the TGI (HOP-92 NSCLC) of the same compound?
Its TGI is 11700 nM.

And the TGI (HS 578T breast)?
Its TGI is 9750 nM.

What about the GI50 (HT29 colon) of the same compound?
Its GI50 is 953 nM.

And the TGI (HT29 colon)?
Its TGI is 6450 nM.

And the GI50 (IGROV1 ovarian)?
Its GI50 is 1320 nM.

And the TGI (IGROV1 ovarian)?
Its TGI is 11400 nM.

And the GI50 (K-562 leukemia)?
Its GI50 is 972 nM.

What about the TGI (K-562 leukemia) of the same compound?
The TGI was > 38300 nM.

What about the GI50 (KM12 colon) of the same compound?
Its GI50 is 1280 nM.

What about the TGI (KM12 colon) of the same compound?
Its TGI is 17500 nM.

What about the GI50 (LOX IMVI melanoma) of the same compound?
The GI50 was 481 nM.

And the TGI (LOX IMVI melanoma)?
The TGI was 1560 nM.

And the GI50 (M14 melanoma)?
Its GI50 is 744 nM.

And the TGI (M14 melanoma)?
The TGI was 1880 nM.

And the GI50 (MALME-3M melanoma)?
The GI50 was 691 nM.

And the TGI (MALME-3M melanoma)?
The TGI was 2110 nM.

What about the GI50 (MCF7 breast) of the same compound?
Its GI50 is 524 nM.

And the TGI (MCF7 breast)?
Its TGI is 2110 nM.

And the GI50 (MDA-MB-231 breast)?
The GI50 was 2240 nM.

What about the TGI (MDA-MB-231 breast) of the same compound?
The TGI was 12800 nM.

What about the GI50 (MDA-MB-435) of the same compound?
The GI50 was 1250 nM.

What about the TGI (MDA-MB-435) of the same compound?
Its TGI is 6780 nM.

What about the GI50 (MDA-MB-468 breast) of the same compound?
Its GI50 is 613 nM.

What about the TGI (MDA-MB-468 breast) of the same compound?
Its TGI is 2080 nM.

And the GI50 (MOLT-4 leukemia)?
Its GI50 is 255 nM.

What about the TGI (MOLT-4 leukemia) of the same compound?
The TGI was 2290 nM.

And the GI50 (NCI-H226 lung)?
The GI50 was 781 nM.

And the TGI (NCI-H226 lung)?
The TGI was 3560 nM.

What about the GI50 (NCI-H23 lung) of the same compound?
Its GI50 is 996 nM.

What about the TGI (NCI-H23 lung) of the same compound?
The TGI was 3310 nM.

And the GI50 (NCI-H460 lung)?
Its GI50 is 210 nM.

And the TGI (NCI-H460 lung)?
Its TGI is 2620 nM.

What about the GI50 (NCI-H522 lung) of the same compound?
The GI50 was 858 nM.

What about the TGI (NCI-H522 lung) of the same compound?
The TGI was 2320 nM.

And the GI50 (NCI/ADR-RES ovarian)?
The GI50 was > 38300 nM.

What about the TGI (NCI/ADR-RES ovarian) of the same compound?
The TGI was > 38300 nM.

And the GI50 (OVCAR-3 ovarian)?
The GI50 was 1010 nM.

And the TGI (OVCAR-3 ovarian)?
The TGI was 4140 nM.

And the GI50 (OVCAR-4 ovarian)?
The GI50 was 1220 nM.

What about the TGI (OVCAR-4 ovarian) of the same compound?
The TGI was 10300 nM.

What about the GI50 (OVCAR-5 ovarian) of the same compound?
Its GI50 is 1550 nM.

What about the TGI (OVCAR-5 ovarian) of the same compound?
The TGI was 11100 nM.

And the GI50 (OVCAR-8 ovarian)?
The GI50 was 1420 nM.

And the TGI (OVCAR-8 ovarian)?
Its TGI is 11900 nM.

And the GI50 (PC-3 prostate)?
The GI50 was 1140 nM.

And the TGI (PC-3 prostate)?
Its TGI is 9360 nM.

And the GI50 (RPMI-8226 leukemia)?
The GI50 was 930 nM.

What about the TGI (RPMI-8226 leukemia) of the same compound?
Its TGI is 2360 nM.

And the GI50 (RXF 393 renal)?
The GI50 was 447 nM.

What about the TGI (RXF 393 renal) of the same compound?
The TGI was 1470 nM.

What about the GI50 (SF-268 CNS) of the same compound?
Its GI50 is 2900 nM.

And the TGI (SF-268 CNS)?
The TGI was 19500 nM.

What about the GI50 (SF-295 CNS) of the same compound?
Its GI50 is 1340 nM.

What about the TGI (SF-295 CNS) of the same compound?
The TGI was 11800 nM.

And the GI50 (SF-539 CNS)?
Its GI50 is 673 nM.

What about the TGI (SF-539 CNS) of the same compound?
Its TGI is 1780 nM.

What about the GI50 (SK-MEL-2 melanoma) of the same compound?
Its GI50 is 3230 nM.

What about the TGI (SK-MEL-2 melanoma) of the same compound?
The TGI was 12800 nM.

And the GI50 (SK-MEL-28 melanoma)?
The GI50 was 992 nM.

What about the TGI (SK-MEL-28 melanoma) of the same compound?
Its TGI is 4260 nM.

What about the GI50 (SK-MEL-5 melanoma) of the same compound?
Its GI50 is 614 nM.

What about the TGI (SK-MEL-5 melanoma) of the same compound?
The TGI was 1470 nM.

What about the GI50 (SK-OV-3 ovarian) of the same compound?
Its GI50 is 1350 nM.

What about the TGI (SK-OV-3 ovarian) of the same compound?
The TGI was 26400 nM.

And the GI50 (SN12C renal)?
The GI50 was 1610 nM.

And the TGI (SN12C renal)?
The TGI was 19600 nM.

What about the GI50 (SNB-19 CNS) of the same compound?
The GI50 was 757 nM.

And the TGI (SNB-19 CNS)?
Its TGI is 3060 nM.

And the GI50 (SNB-75 CNS)?
Its GI50 is 982 nM.

And the TGI (SNB-75 CNS)?
Its TGI is 8370 nM.

What about the GI50 (SW-620 colon) of the same compound?
The GI50 was 1150 nM.

What about the TGI (SW-620 colon) of the same compound?
Its TGI is > 38300 nM.

And the GI50 (T-47D breast)?
The GI50 was 1200 nM.

What about the TGI (T-47D breast) of the same compound?
The TGI was 18500 nM.

What about the GI50 (TK-10 renal) of the same compound?
The GI50 was 3030 nM.

What about the TGI (TK-10 renal) of the same compound?
Its TGI is 35700 nM.

What about the GI50 (U251 CNS) of the same compound?
Its GI50 is 1000 nM.

What about the TGI (U251 CNS) of the same compound?
The TGI was 4810 nM.

What about the GI50 (UACC-257 melanoma) of the same compound?
Its GI50 is 1220 nM.

What about the TGI (UACC-257 melanoma) of the same compound?
The TGI was 8480 nM.

And the GI50 (UACC-62 melanoma)?
The GI50 was 1410 nM.

And the TGI (UACC-62 melanoma)?
Its TGI is 10600 nM.

What about the GI50 (UO-31 renal) of the same compound?
The GI50 was 4550 nM.

What about the TGI (UO-31 renal) of the same compound?
The TGI was 29800 nM.
